Measured values as given in patent US20230181474A1, “TABLET COMPRISING OPICAPONE” (Ono Pharmaceutical Co., Ltd., priority 2020, published 2023).

experiment: Evaluation of particle size by dynamic particle image analysis (iSpect DIA-10); assay type: physicochemical; details: dispersion medium 10% polysorbate 20 aqueous solution
Text: In the present specification, “maximum length” refers to a maximum length between two points on a contour of a particle, and this may be measured by the dynamic image analysis method. An example of the equipment used for measurement is the dynamic particle image analysis system iSpect DIA-10 (Shimadzu Corporation). In the present invention, the maximum length of particles of opicapone or a pharmaceutically acceptable salt thereof in terms of D50 value is less than 46 µm, preferably 45 µm or less, more preferably 40 µm or less, even more preferably 35 µm or less, and particularly preferably 30 µm or less or 29 µm or less. In the present invention, the maximum length of particles of opicapone or a pharmaceutically acceptable salt thereof in terms of D90 value is, for example, less than 111 µm, preferably 110 µm or less, more preferably 100 µm or less, even more preferably 90 µm or less, and particularly preferably 80 µm or less.
In the present specification, “equivalent circle diameter” refers to the diameter of a circle that has the same area as the projected area of a particle image, and this may be measured by the dynamic image analysis method. An example of the equipment used for measurement is the dynamic particle image analysis system iSpect DIA-10 (Shimadzu Corporation).
The particle sizes of the non-micronized product and the micronized products A1 to A4 prepared in Example 1 using the opicapone drug substance were measured under the following conditions.
• Measurement equipment: Dynamic particle image analysis system iSpect DIA-10 (Shimadzu Corporation) • Evaluation items: Equivalent circle diameter, maximum length • Dispersion medium: 10% polysorbate 20 aqueous solution • Sample: Approximately 10 mg of the measurement sample was placed in 1 ml of the dispersion medium, suspended, and then diluted 100-fold.

| Structure (SMILES) | Equivalent Circle Diameter D10 | Equivalent Circle Diameter D50 | Equivalent Circle Diameter D90 | Maximum Length D10 | Maximum Length D50 | Maximum Length D90 |
| --- | --- | --- | --- | --- | --- | --- |
| Cc1nc(Cl)c(-c2noc(-c3cc(O)c(O)c([N+](=O)[O-])c3)n2)c(C)c1Cl [Micronized Product A2] | 7 µm | 11 µm | 18 µm | 16 µm | 26 µm | 60 µm |
| Cc1nc(Cl)c(-c2noc(-c3cc(O)c(O)c([N+](=O)[O-])c3)n2)c(C)c1Cl [Non-micronized Product] | 6 µm | 13 µm | 23 µm | 16 µm |  | 111 µm |
| Cc1nc(Cl)c(-c2noc(-c3cc(O)c(O)c([N+](=O)[O-])c3)n2)c(C)c1Cl [Micronized Product A3] | 7 µm | 11 µm | 19 µm | 15 µm |  | 73 µm |
| Cc1nc(Cl)c(-c2noc(-c3cc(O)c(O)c([N+](=O)[O-])c3)n2)c(C)c1Cl [Micronized Product A 1] | 7 µm | 11 µm |  | 16 µm | 28 µm | 63 µm |
